From US8211606B2, “Coloring compound, yellow toner, sheet for heat-sensitive transfer recording, and ink” (Canon Kabushiki Kaisha, priority 2007, dated 2012) come the findings set out here.

A short description of data set [1]: Solubility check: solubility of coloring compound in chloroform at room temperature. The class given is physicochemical. The method, then: A solubility test was performed to measure the solubility of a coloring compound in chloroform at room temperature. The solubility was evaluated as described below.
A: 5% or more solubility in chloroform
B: 1% or more and less than 5% solubility in chloroform
C: less than 1% solubility in chloroform
A solubility of 1% or more in chloroform was determined to indicate high compatibility with resin.

Data set [2] in a line: Light resistance evaluation of coloring compound on paper, Sun Tester irradiation (color difference ΔE). The class given is physicochemical. As to conditions: 765 w/m^2, 50° C., irradiation time 20 hours, on CLC color copy paper. The method, then: A coloring compound was dissolved in tetrahydrofuran/cyclohexanone (=1/1 (v/v)) to prepare a 0.04 mol/L solution, which was then filtered with a filter (Φ0.2 μm). The prepared coloring compound solution was applied on CLC color copy paper (manufactured by Canon Inc.) by a bar coat method (Bar No. 3) and air-dried overnight. The test paper was then subjected to an irradiation experiment using Sun Tester (XF-180CPS, manufactured by Shimadzu Corporation) under the conditions of an illuminance of 765 w/m^2, a temperature of 50° C. and an irradiation time of 20 hours. The test paper before and after irradiation was analyzed by means of SpectroLino (from Gretag Machbeth). Optical density and chromaticity (L*, a*, b*) were determined on the basis of the L*a*b* color system. Color difference (ΔE) was calculated according to the following equation on the basis of measurements of the color characteristics.
The evaluation was performed as below.
A: The ΔE value is less than 10.
B: The ΔE value is 10 or more and less than 20.
C: The ΔE value is 20 or more.
The ΔE value of less than 20 was determined to indicate good light resistance.

`CCn1c(O)c(/N=N/c2ccccc2[N+](=O)[O-])c(C)c(C(N)=O)c1=O` [(2), reference compound]: the Solubility entry in data set [1] was “C (less than 1% solubility in chloroform)”. Further, the “Light Resistance” value in data set [2] was “C (The ΔE value is 20 or more.)”.
In the case of `CCCCC(CC)Cn1c(O)c(N=Nc2cc(F)c(F)cc2[N+](=O)[O-])c(C)c(C(N)=O)c1=O` (stereo not shown) [(7)], the Solubility result in data set [1] is “A (5% or more solubility in chloroform)”. Besides, the “Light Resistance” value in data set [2] was “B (The ΔE value is 10 or more and less than 20.)”.
On to `CCCCC(CC)Cn1c(O)c(N=Nc2c([N+](=O)[O-])cc(F)c(F)c2F)c(C)c(C(N)=O)c1=O` (stereo not shown) [(8)], for which the Solubility result in data set [1] is on record as “A (5% or more solubility in chloroform)”. In addition, in data set [2], the “Light Resistance” value was “B (The ΔE value is 10 or more and less than 20.)”.
In the case of `CCCCC(CC)Cn1c(O)c(N=Nc2c([N+](=O)[O-])cc(C(F)(F)F)cc2[N+](=O)[O-])c(C)c(C(N)=O)c1=O` (stereo not shown) [(9)], the Solubility entry in data set [1] was “B (1% or more and less than 5% solubility in chloroform)”. Further, the “Light Resistance” value in data set [2] is “B (The ΔE value is 10 or more and less than 20.)”.
On to `CCCCC(CC)Cn1c(O)c(N=Nc2c(Br)cc(C(F)(F)F)cc2[N+](=O)[O-])c(C)c(C(N)=O)c1=O` (stereo not shown) [(10)], for which the Solubility result in data set [1] was “B (1% or more and less than 5% solubility in chloroform)”. Besides, in data set [2], the “Light Resistance” value was “A (The ΔE value is less than 10.)”.
With `CCCCC(CC)Cn1c(O)c(N=Nc2ccc(C#N)cc2[N+](=O)[O-])c(C)c(C(N)=O)c1=O` (stereo not shown) [(11)], the Solubility entry in data set [1] is “A (5% or more solubility in chloroform)”. For the same compound, the “Light Resistance” value in data set [2] is recorded as “A (The ΔE value is less than 10.)”.
Take `CCCCC(CC)Cn1c(O)c(N=Nc2ccc(C(F)(F)F)cc2[N+](=O)[O-])c(C)c(C(N)=O)c1=O` (stereo not shown) [(12)]: the Solubility result in data set [1] is “A (5% or more solubility in chloroform)”. Moreover, the “Light Resistance” value in data set [2] is listed as “A (The ΔE value is less than 10.)”.
Turning to `CCn1c(O)c(N=Nc2ccc(C(F)(F)F)cc2[N+](=O)[O-])c(-c2ccccc2)c(C(=O)NC(C)(C)C)c1=O` [(13)], in data set [1], the Solubility entry was “A (5% or more solubility in chloroform)”. Further, the “Light Resistance” value in data set [2] is “B (The ΔE value is 10 or more and less than 20.)”.
Regarding `CCCCC(C)(CC)NC(=O)c1c(C)c(N=Nc2ccc(C(F)(F)F)cc2[N+](=O)[O-])c(O)[nH]c1=O` (stereo not shown) [(14)], in data set [1], the Solubility result is “B (1% or more and less than 5% solubility in chloroform)”. The “Light Resistance” value in data set [2] is recorded as “A (The ΔE value is less than 10.)”.
Turning to `Cc1c(N=Nc2ccccc2[N+](=O)[O-])c(O)n(-c2ccccc2)c(=O)c1C(N)=O` [(15)], in data set [1], the Solubility result was “B (1% or more and less than 5% solubility in chloroform)”. For the same compound, the “Light Resistance” value in data set [2] is listed as “A (The ΔE value is less than 10.)”.
On to `Cc1c(N=Nc2ccccc2[N+](=O)[O-])c(O)n(Cc2ccccc2)c(=O)c1C(N)=O` [(16)], for which, in data set [1], the Solubility result is “B (1% or more and less than 5% solubility in chloroform)”. For the same compound, the “Light Resistance” value in data set [2] is given as “A (The ΔE value is less than 10.)”.
As for `CCCCC(CC)Cn1c(O)c(N=Nc2ccccc2[N+](=O)[O-])c(C)c(C(=O)NC2CCCC2)c1=O` (stereo not shown) [(17)], the Solubility result in data set [1] is “A (5% or more solubility in chloroform)”. For the same compound, the “Light Resistance” value in data set [2] was “B (The ΔE value is 10 or more and less than 20.)”.
Take `CCCCC(CC)Cn1c(O)c(N=Nc2ccc(C(F)(F)F)cc2[N+](=O)[O-])c(C)c(C(=O)NCc2ccccc2)c1=O` (stereo not shown) [(18)]: the Solubility entry in data set [1] is on record as “A (5% or more solubility in chloroform)”. Also, in data set [2], the “Light Resistance” value was “B (The ΔE value is 10 or more and less than 20.)”.
As to `CCCCC(CC)Cn1c(O)c(/N=N/c2ccccc2[N+](=O)[O-])c(C)c(C#N)c1=O` (stereo not shown) [Comparative Compound (1), reference compound], the Solubility entry in data set [1] was “B (1% or more and less than 5% solubility in chloroform)”. Further, in data set [2], the “Light Resistance” value is “C (The ΔE value is 20 or more.)”.
As to `CCCCC(CC)Cn1c(O)c(/N=N/c2ccccc2[N+](=O)[O-])c(C)c(C(N)=O)c1=O` (stereo not shown) [Compound (4)], the Solubility entry in data set [1] is “B (1% or more and less than 5% solubility in chloroform)”. In addition, in data set [2], the “Light Resistance” value is given as “A (The ΔE value is less than 10.)”.
`CCCCC(CC)Cn1c(O)c(/N=N/c2ccc(C(F)(F)F)cc2[N+](=O)[O-])c(C)c(C(=O)NC(C)(C)C)c1=O` (stereo not shown) [Compound (5)]: in data set [1], the Solubility result was “A (5% or more solubility in chloroform)”. In addition, the “Light Resistance” value in data set [2] was “A (The ΔE value is less than 10.)”.
On to `CCCCC(CC)Cn1c(O)c(/N=N/c2ccc(F)cc2[N+](=O)[O-])c(C)c(C(N)=O)c1=O` (stereo not shown) [Compound (6)], for which the Solubility entry in data set [1] is “B (1% or more and less than 5% solubility in chloroform)”. In data set [2], the “Light Resistance” value was “A (The ΔE value is less than 10.)”.
